# Earlier results in patent publication US20140213664A1, “PROCESSES, PRODUCTS AND METHODOLOGIES FOR MAKING AND USING NOVEL BIOADVANTAGED SWEETENERS” (priority 2013, published 2014).
# Legend:
# [1] = injected hypodermically
# [2] = test system: STZ-induced diabetic rats
Structure (SMILES),glycosuria [1],HDL-cholesterol [2],antihyperglycemic effect [2],total cholesterol and triglyceride levels [2]
O=C(CCc1ccc(O)cc1)c1c(O)cc(O)cc1O[C@@H]1O[C@H](CO)[C@@H](O)[C@H](O)[C@H]1O [Phlorizin],produces glycosuria,,,
O=CC=Cc1ccccc1 [Cinnamaldehyde],,increasing,significant antihyperglycemic effect,lowering
